In the first experiment the target is T1, human beta-3-adrenergic receptor (Homo sapiens, UniProt P13945).
T1 construct: stably express full-length human beta-3-adrenergic receptor; expressed in transfected cells; host or cells: Chinese hamster ovary (CHO) cells
T1 sequence (P13945 whole entry): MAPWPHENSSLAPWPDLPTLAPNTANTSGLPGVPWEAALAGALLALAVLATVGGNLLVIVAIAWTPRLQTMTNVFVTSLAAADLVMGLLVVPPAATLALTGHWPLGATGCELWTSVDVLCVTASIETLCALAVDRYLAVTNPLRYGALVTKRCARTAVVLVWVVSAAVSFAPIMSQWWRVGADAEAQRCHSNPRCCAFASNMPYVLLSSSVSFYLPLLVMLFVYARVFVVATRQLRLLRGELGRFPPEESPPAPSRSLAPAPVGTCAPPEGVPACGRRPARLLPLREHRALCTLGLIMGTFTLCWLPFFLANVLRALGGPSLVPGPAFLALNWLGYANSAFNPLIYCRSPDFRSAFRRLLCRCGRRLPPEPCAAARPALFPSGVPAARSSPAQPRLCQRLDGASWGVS
Kind of experiment: cAMP production (beta-3 agonist activity) in CHO cells stably expressing human beta-3-adrenergic receptor, cAMP SPA. It is filed as cell-based. The following applies: CHO cells expressing full-length human beta-3-adrenergic receptor, 30 min incubation, 10 μM to 3 nM, read-out: Beta-3 Agonistic Activity: Compounds with EC50 values >1 μM. An outline of the steps:
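CHO cells stably expressing full-length receptor treated 30 min at 37° C with compounds (10 μM to 3 nM, 3-fold dilutions) in KRP buffer pH 7.4 with […] IBMX and 1% DMSO. Lysed cells assayed for cAMP by SPA; EC50 derived from cAMP concentration-response curves.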
(Cyclic AMP is a second messenger, typically raised through Gs and lowered through Gi signalling.)
As for `O[C@@H](CNC[C@H]1CCc2cc(-c3ccc(Cl)c(Cl)c3)ccc2O1)c1cccnc1` [Example 39, (1R)-2-({[(2R)-6-(3,4-dichlorophenyl)-3,4-dihydro-2H-chromen-2-yl]methyl}amino)-1-(3-pyridinyl)ethanol], the EC50 (commonly the concentration needed to bring the measured effect to its halfway point) was over 1 µM.

Staying with this experiment, now noted: CHO cells expressing full-length human beta-3-adrenergic receptor, 30 min incubation, 10 μM to 3 nM, read-out: Beta-3 Agonistic Activity: Compounds with EC50 values ≦1 μM.
Consider `COCC(=O)NS(=O)(=O)c1ccc(-c2ccc3c(c2)CC[C@H](CNC[C@H](O)c2cccnc2)O3)cc1` [Example 291], for which the EC50 is at most 1 µM. For `CCOCC(=O)NS(=O)(=O)c1ccc(-c2ccc3c(c2)CC[C@H](CNC[C@H](O)c2cccnc2)O3)cc1` [Example 286, N-(ethoxyacetyl)-4-[(2R)-2-({[(2R)-2-hydroxy-2-(3-pyridinyl)ethyl]amino}methyl)-3,4-dihydro-2H-chromen-6-yl]benzenesulfonamide], the EC50 was at most 1 µM.

`Nc1ccc([C@@H](O)CNC[C@H]2CCc3cc(-c4ccc(-c5nnn[nH]5)cc4)ccc3O2)cn1` [Example 384, (1R)-1-(6-amino-3-pyridinyl)-2-[({(2R)-6-[4-(1H-tetraazol-5-yl)phenyl]-3,4-dihydro-2H-chromen-2-yl}methyl)amino]ethanol]: the EC50 was at most 1 µM. Consider `Nc1ccc([C@@H](O)CNC[C@H]2CCc3cc(C(=O)NCC(=O)O)ccc3O2)cn1` [Example 362, N-{[(2R)-2-({[(2R)-2-(6-amino-3-pyridinyl)-2-hydroxyethyl]amino}methyl)-3,4-dihydro-2H-chromen-6-yl]carbonyl}glycine], for which the EC50 was at most 1 µM. `O=S(=O)(Nc1ncccn1)c1ccc(-c2ccc3c(c2)CC[C@@H](CNCC(O)c2cccnc2)O3)cc1` (stereo partly drawn) [Example 249B, 4-[(2S)-2-({[-2-hydroxy-2-(3-pyridinyl)ethyl]amino}methyl)-3,4-dihydro-2H-chromen-6-yl]-N-(2-pyrimidinyl)benzenesulfonamide]: the EC50 is at most 1 µM. `COc1ccc([C@H](O)CNC[C@H]2CCc3cc(-c4ccc(C(=O)O)cc4)ccc3O2)cn1` [Example 343]: the EC50 is at most 1 µM.

With `O[C@@H](CNC[C@H]1CCc2cc(-c3ccc(-c4ccccc4)cc3)ccc2O1)c1cccnc1` [Example 47], the half-maximal effective concentration (EC50) is at most 1 µM. Still for that read-out and setting: as for `CC(=O)c1ccc(NS(=O)(=O)c2ccc(-c3ccc4c(c3)CC[C@H](CNC[C@H](O)c3cccnc3)O4)cc2)cc1` [Example 264], the figure is at most 1 µM. For `O=C(NS(=O)(=O)c1cccc(-c2ccc3c(c2)CC[C@H](CNC[C@H](O)c2cccnc2)O3)c1)c1cccc(Cl)c1` [Example 302], the EC50 is at most 1 µM. Same read-out and setting: as for `O[C@@H](CNC[C@H]1CCc2cc(-c3cccc4ccccc34)ccc2O1)c1cccnc1` [Example 54], the figure is at most 1 µM; as for `COc1cc(OC)nc(NS(=O)(=O)c2cc(-c3ccc4c(c3)CC[C@H](CNC[C@H](O)c3cccnc3)O4)ccc2OC)n1` [Example 270], at most 1 µM.

Source of the values: US6660752B2, “2,6-Substituted chroman derivatives useful as beta-3 adrenoreceptor agonists” (Bayer Pharmaceuticals Corporation, priority 2001, dated 2003).
